The source of these data is US20250129087A1, “SALT CRYSTALS” (INTRA-CELLULAR THERAPIES, INC., priority 2022, published 2025).

The data set can be described thus: pH of the filtrated solutions (pH indication paper). The data set is classed as physicochemical. The settings on record: pH of the filtrated solution. How it is done:
Samples are filtered and diluted (in a mixture of acetonitrile/water (1/1)) for LC analysis. Solubilities are calculated with the use of a calibration line. Furthermore, the pH values of the filtrated solutions are determined using pH indication paper.
The molecule `CN1C(=O)c2c(nn(Cc3ccc(-c4cccc(F)n4)cc3)c2Nc2ccccc2)N2C1=N[C@@H]1CCC[C@@H]12.O=C(O)C(O)c1ccccc1` [Mandelate Salt 2] displayed a pH of 4. Regarding `CC1(C)C2CCC1(CS(=O)(=O)O)C(=O)C2.CN1C(=O)c2c(nn(Cc3ccc(-c4cccc(F)n4)cc3)c2Nc2ccccc2)N2C1=N[C@@H]1CCC[C@@H]12` [Camsylate Salt 1], the pH is 1. Regarding `CN1C(=O)c2c(nn(Cc3ccc(-c4cccc(F)n4)cc3)c2Nc2ccccc2)N2C1=N[C@@H]1CCC[C@@H]12.O=P(O)(O)O` [Phosphate Salt Control], the pH was found to be 5. For the molecule `CCCCCCCC(=O)O.CN1C(=O)c2c(nn(Cc3ccc(-c4cccc(F)n4)cc3)c2Nc2ccccc2)N2C1=N[C@@H]1CCC[C@@H]12` [Caprylate Salt 1], the pH came to 5. Consider `CC1(C)C2CCC1(CS(=O)(=O)O)C(=O)C2.CN1C(=O)c2c(nn(Cc3ccc(-c4cccc(F)n4)cc3)c2Nc2ccccc2)N2C1=N[C@@H]1CCC[C@@H]12` [Camsylate Salt 2], for which the pH is 1. The molecule `CN1C(=O)c2c(nn(Cc3ccc(-c4cccc(F)n4)cc3)c2Nc2ccccc2)N2C1=N[C@@H]1CCC[C@@H]12.Cl` [HCl Salt 1] displayed a pH of 4. Consider `CN1C(=O)c2c(nn(Cc3ccc(-c4cccc(F)n4)cc3)c2Nc2ccccc2)N2C1=N[C@@H]1CCC[C@@H]12.Cc1ccc(S(=O)(=O)O)cc1` [Tosylate Salt 2], for which the pH is recorded as 5.

In the case of `CN1C(=O)c2c(nn(Cc3ccc(-c4cccc(F)n4)cc3)c2Nc2ccccc2)N2C1=N[C@@H]1CCC[C@@H]12.O=C(O)C(=O)O` [Oxalate Salt 1], the pH is listed as 4. The molecule `CN1C(=O)c2c(nn(Cc3ccc(-c4cccc(F)n4)cc3)c2Nc2ccccc2)N2C1=N[C@@H]1CCC[C@@H]12.Cc1ccc(S(=O)(=O)O)cc1` [Tosylate Salt 1] registered a pH of 1. For the molecule `CN1C(=O)c2c(nn(Cc3ccc(-c4cccc(F)n4)cc3)c2Nc2ccccc2)N2C1=N[C@@H]1CCC[C@@H]12.Cl` [HCl Salt 4], the pH is on record as 4. As for `CN1C(=O)c2c(nn(Cc3ccc(-c4cccc(F)n4)cc3)c2Nc2ccccc2)N2C1=N[C@@H]1CCC[C@@H]12.O=C(O)CCC(=O)O` [Succinate Salt 2], the pH is 4. `CN1C(=O)c2c(nn(Cc3ccc(-c4cccc(F)n4)cc3)c2Nc2ccccc2)N2C1=N[C@@H]1CCC[C@@H]12.O=C(O)C(Cl)Cl` [Dichloroacetate Salt 1]: the pH is recorded as 4-5.

`CN1C(=O)c2c(nn(Cc3ccc(-c4cccc(F)n4)cc3)c2Nc2ccccc2)N2C1=N[C@@H]1CCC[C@@H]12.O=C(O)c1ccc2ccccc2c1O` [Xinafoate Salt 1] displayed a pH of 7.

The molecule `CN1C(=O)c2c(nn(Cc3ccc(-c4cccc(F)n4)cc3)c2Nc2ccccc2)N2C1=N[C@@H]1CCC[C@@H]12.Cl` [HCl Salt 3] displayed a pH of 3. `CN1C(=O)c2c(nn(Cc3ccc(-c4cccc(F)n4)cc3)c2Nc2ccccc2)N2C1=N[C@@H]1CCC[C@@H]12.O=C(O)c1cccnc1` [Nicotinate Salt 1]: the pH is given as 5. As to `CC(O)C(=O)O.CN1C(=O)c2c(nn(Cc3ccc(-c4cccc(F)n4)cc3)c2Nc2ccccc2)N2C1=N[C@@H]1CCC[C@@H]12` [Lactate Salt 1], the pH is 4-5. As for `CN1C(=O)c2c(nn(Cc3ccc(-c4cccc(F)n4)cc3)c2Nc2ccccc2)N2C1=N[C@@H]1CCC[C@@H]12.O=C(O)CCCCC(=O)O` [Adipate Salt 3], the pH is listed as 4-5. As to `CN1C(=O)c2c(nn(Cc3ccc(-c4cccc(F)n4)cc3)c2Nc2ccccc2)N2C1=N[C@@H]1CCC[C@@H]12.CN1C(=O)c2c(nn(Cc3ccc(-c4cccc(F)n4)cc3)c2Nc2ccccc2)N2C1=N[C@@H]1CCC[C@@H]12.O=C(O)/C=C/C(=O)O` [Fumarate Salt 1], the pH is reported as 2. Then `CCCCCCCCCCCCCCCC(=O)O.CN1C(=O)c2c(nn(Cc3ccc(-c4cccc(F)n4)cc3)c2Nc2ccccc2)N2C1=N[C@@H]1CCC[C@@H]12` [Palmitate Salt 1], with 5-6.
